Source: ChEMBL document CHEMBL6103656, “Discovery of BT-114143, a Novel and Potent Phosphoric Acid-Containing Small-Molecule Plasminogen Activation Inhibitor for Hyperfibrinolysis” (J Med Chem, 2025)
Each block holds one molecule with its values, some of them ahead of it. The source made the active and inactive calls. The calls are words filed in the database; no cut-off is given here.

Experiments:
Blood = experiment: Ratio of compound IC50 to TXA IC50 in anti-fibrinolytic activity in healthy human fresh blood by plasma clot lysis; format: functional
[1] = AUC (0 to infinity) in Sprague-Dawley rat at 2 mg/kg, IM measured upto 24 hrs by LC-MS/MS analysis; format: ADME, organism-based; details: in vivo
Plasminogen [2] = target: T1, Plasminogen (Homo sapiens, UniProt P00747); experiment: Inhibition of plasminogen activation assessed as inhibition of recombinant human tissue plasminogen activator (rt-PA)-induced clot lysis measured after clot lysis pre-incubated for 15 mins by buffer clot lysis assay
[3] = Half life in Sprague-Dawley rat at 2 mg/kg, IM measured upto 24 hrs by LC-MS/MS analysis; format: ADME, organism-based; details: in vivo
[4] = Maximum tolerated dose in beagle dog treated intravenously twice a day; format: toxicity, organism-based, Canis lupus familiaris; details: in vivo, route iv
[5] = Volume of distribution at steady state in Sprague-Dawley rat at 2 mg/kg, iv measured upto 24 hrs by LC-MS/MS analysis; format: ADME, organism-based; details: in vivo, read-out: Vdss
[6] = target: T2, GABA-A receptor; alpha-1/beta-2/gamma-2 (Homo sapiens, UniProt P14867+P18507+P47870); experiment: Inhibition of GABA-A receptor alpha1beta2gamma2 (unknown origin); format: toxicity
T2 sequence (P14867 whole entry): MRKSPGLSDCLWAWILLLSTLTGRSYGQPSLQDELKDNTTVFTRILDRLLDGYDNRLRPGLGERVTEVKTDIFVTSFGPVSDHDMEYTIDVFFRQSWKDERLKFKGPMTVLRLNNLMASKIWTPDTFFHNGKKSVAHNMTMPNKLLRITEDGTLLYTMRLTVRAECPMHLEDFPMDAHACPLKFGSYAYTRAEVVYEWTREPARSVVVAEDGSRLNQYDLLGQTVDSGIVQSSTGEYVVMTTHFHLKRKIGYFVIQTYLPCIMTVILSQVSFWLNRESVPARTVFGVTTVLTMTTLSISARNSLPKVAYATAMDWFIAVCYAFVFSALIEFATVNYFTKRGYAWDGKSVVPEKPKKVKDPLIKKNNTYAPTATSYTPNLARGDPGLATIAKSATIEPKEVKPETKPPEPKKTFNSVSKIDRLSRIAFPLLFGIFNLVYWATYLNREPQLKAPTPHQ
T2 sequence (P47870 whole entry): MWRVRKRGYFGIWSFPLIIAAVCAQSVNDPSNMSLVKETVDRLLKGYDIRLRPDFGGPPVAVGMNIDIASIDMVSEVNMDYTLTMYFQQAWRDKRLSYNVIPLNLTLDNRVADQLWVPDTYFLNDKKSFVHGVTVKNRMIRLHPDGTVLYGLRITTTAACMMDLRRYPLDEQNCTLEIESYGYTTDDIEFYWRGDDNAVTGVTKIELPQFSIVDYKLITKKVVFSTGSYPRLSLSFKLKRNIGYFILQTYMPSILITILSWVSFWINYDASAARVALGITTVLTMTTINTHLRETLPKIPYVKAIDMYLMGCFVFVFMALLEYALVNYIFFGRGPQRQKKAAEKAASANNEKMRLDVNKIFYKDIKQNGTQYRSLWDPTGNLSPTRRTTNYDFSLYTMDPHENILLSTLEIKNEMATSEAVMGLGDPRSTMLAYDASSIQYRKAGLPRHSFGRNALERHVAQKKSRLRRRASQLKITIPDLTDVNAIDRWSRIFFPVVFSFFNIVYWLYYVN
T2 sequence (P18507 whole entry): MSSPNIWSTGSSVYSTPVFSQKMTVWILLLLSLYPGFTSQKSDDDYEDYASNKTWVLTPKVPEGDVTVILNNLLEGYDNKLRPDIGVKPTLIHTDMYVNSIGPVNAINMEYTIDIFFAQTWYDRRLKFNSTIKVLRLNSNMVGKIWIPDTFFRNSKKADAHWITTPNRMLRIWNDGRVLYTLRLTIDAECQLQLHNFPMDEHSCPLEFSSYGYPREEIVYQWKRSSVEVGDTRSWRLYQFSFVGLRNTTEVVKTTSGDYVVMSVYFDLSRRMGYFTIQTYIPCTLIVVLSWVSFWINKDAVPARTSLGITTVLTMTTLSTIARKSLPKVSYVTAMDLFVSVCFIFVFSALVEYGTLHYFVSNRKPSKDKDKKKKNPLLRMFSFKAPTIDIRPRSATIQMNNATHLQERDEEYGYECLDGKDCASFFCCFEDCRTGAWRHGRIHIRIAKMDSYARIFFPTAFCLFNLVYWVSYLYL

[7] = Toxicity in Sprague-Dawley rat assessed as no observed adverse effect level (NOAEL) treated for 14 days; details: in vivo, time 14 day
[8] = target: Tissue-type plasminogen activator (Rattus norvegicus) (UniProt P19637); experiment: Inhibition of recombinant tissue plasminogen activator (rt-PA)-induced fibrinolysis in Sprague-Dawley rat fresh whole blood assessed as thrombus dissolution within 30 mins after reaching maximum amplitude (LY30) at > 3 uM by thromboelastography analysis; format: functional, tissue-based
[9] = AUC (0 to infinity) in Sprague-Dawley rat at 2 mg/kg, iv measured upto 24 hrs by LC-MS/MS analysis; format: ADME, organism-based; details: in vivo
[10] = target: Voltage-gated inwardly rectifying potassium channel KCNH2 (Homo sapiens, UniProt Q12809); experiment: Inhibition of hERG; format: toxicity
[11] = Half life in Sprague-Dawley rat at 2 mg/kg, iv measured upto 24 hrs by LC-MS/MS analysis; format: ADME, organism-based; details: in vivo
[12] = Toxicity in beagle dog assessed as no observed adverse effect level (NOAEL) treated for 14 days; parameters: species or system Canis lupus familiaris; details: in vivo, time 14 day
[13] = target: Tissue-type plasminogen activator (Homo sapiens) (UniProt P00750); experiment: Inhibition of recombinant human tissue plasminogen activator (rt-PA)-induced fibrinolysis in human fresh whole blood assessed as thrombus dissolution within 30 mins after reaching maximum amplitude (LY30) by thromboelastography analysis; format: functional, tissue-based
Homo sapiens = organism: Homo sapiens; experiment: (§1) Inhibition of Plasminogen (unknown origin) binding to fibrin (unknown origin) interaction by surface plasmon resonance (SPR) analysis
[14] = as §1; parameters: species or system Homo sapiens
Rattus norvegicus [15] = experiment: Hemostatic effect in rt-PA enhanced Sprague-Dawley rat tail bleeding model assessed as reduction in tail bleeding time at 5 mg/kg infused into right jugular vein; format: functional, organism-based; details: route iv
[16] = Half life in beagle dog at 2 mg/kg, IM measured upto 24 hrs by LC-MS/MS analysis; format: ADME, organism-based, Canis lupus familiaris; details: in vivo
Plasminogen [17] = target: T1, Plasminogen; experiment: Binding affinity to biotinylated Plasminogen (unknown origin) assessed as dissociation constant by surface plasmon resonance (SPR) analysis
[18] = AUC (0 to infinity) in beagle dog at 2 mg/kg, iv measured upto 24 hrs by LC-MS/MS analysis; format: ADME, organism-based, Canis lupus familiaris; details: in vivo
[19] = Clearance in Sprague-Dawley rat at 2 mg/kg, iv measured upto 24 hrs by LC-MS/MS analysis; format: ADME, organism-based; details: in vivo
[20] = Half life in beagle dog at 2 mg/kg, iv measured upto 24 hrs by LC-MS/MS analysis; format: ADME, organism-based, Canis lupus familiaris; details: in vivo
Rattus norvegicus [21] = experiment: Hemostatic effect in rt-PA enhanced Sprague-Dawley rat tail bleeding model assessed as reduction in tail bleeding time at 40 mg/kg infused into right jugular vein; format: functional, organism-based; details: route iv
[22] = Toxicity in rat peripheral blood cells assessed as clastogenic effect by micronucleus test; format: cell-based; details: erythrocyte
[23] = Maximum tolerated dose in Sprague-Dawley rat treated intravenously twice a day; format: toxicity, organism-based; details: in vivo, route iv
[24] = Toxicity in CHO cells assessed as mutagenic effect by chromosome aberration test; format: cell-based, Cricetulus griseus; details: chinese hamster
[25] = Volume of distribution at steady state in beagle dog at 2 mg/kg, iv measured upto 24 hrs by LC-MS/MS analysis; format: ADME, organism-based, Canis lupus familiaris; details: in vivo
[26] = target: Glycine receptor (alpha-1/beta) (Homo sapiens, UniProt P23415+P48167); experiment: Inhibition of glycine receptor alpha1beta (unknown origin); format: toxicity
[27] = AUC (0 to infinity) in beagle dog at 2 mg/kg, IM measured upto 24 hrs by LC-MS/MS analysis; format: ADME, organism-based, Canis lupus familiaris; details: in vivo
[28] = Clearance in beagle dog at 1 mg/kg, iv measured upto 24 hrs by LC-MS/MS analysis; format: ADME, organism-based, Canis lupus familiaris; details: in vivo
[29] = AUC (0 to infinity) in beagle dog at 1 mg/kg, iv measured upto 24 hrs by LC-MS/MS analysis; format: ADME, organism-based, Canis lupus familiaris; details: in vivo
[30] = Half life in beagle dog at 1 mg/kg, iv measured upto 24 hrs by LC-MS/MS analysis; format: ADME, organism-based, Canis lupus familiaris; details: in vivo
[31] = Volume of distribution at steady state in Sprague-Dawley rat at 1 mg/kg, iv measured upto 24 hrs by LC-MS/MS analysis; format: ADME, organism-based; details: in vivo, read-out: Vdss
[32] = Half life in Sprague-Dawley rat at 1 mg/kg, iv measured upto 24 hrs by LC-MS/MS analysis; format: ADME, organism-based; details: in vivo
[33] = Clearance in Sprague-Dawley rat at 1 mg/kg, iv measured upto 24 hrs by LC-MS/MS analysis; format: ADME, organism-based; details: in vivo
[34] = AUC (0 to infinity) in Sprague-Dawley rat at 1 mg/kg, iv measured upto 24 hrs by LC-MS/MS analysis; format: ADME, organism-based; details: in vivo
[35] = Volume of distribution at steady state in beagle dog at 1 mg/kg, iv measured upto 24 hrs by LC-MS/MS analysis; format: ADME, organism-based, Canis lupus familiaris; details: in vivo, read-out: Vdss

T1 sequence (P00747 97-580 limits assumed): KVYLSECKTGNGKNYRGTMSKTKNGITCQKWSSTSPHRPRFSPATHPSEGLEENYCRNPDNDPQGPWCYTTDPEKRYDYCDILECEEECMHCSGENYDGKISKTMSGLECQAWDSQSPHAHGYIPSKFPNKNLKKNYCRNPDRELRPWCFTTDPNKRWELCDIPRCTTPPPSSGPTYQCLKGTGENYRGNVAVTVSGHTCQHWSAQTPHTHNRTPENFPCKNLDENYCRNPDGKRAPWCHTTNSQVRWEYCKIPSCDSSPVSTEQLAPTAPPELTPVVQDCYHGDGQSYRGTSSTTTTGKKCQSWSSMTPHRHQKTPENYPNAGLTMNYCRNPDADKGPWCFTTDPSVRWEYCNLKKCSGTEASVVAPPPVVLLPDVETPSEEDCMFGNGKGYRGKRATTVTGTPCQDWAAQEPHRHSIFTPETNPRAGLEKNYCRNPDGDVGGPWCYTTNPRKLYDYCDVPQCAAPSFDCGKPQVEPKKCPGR
T1 sequence (P00747 581-810 limits assumed): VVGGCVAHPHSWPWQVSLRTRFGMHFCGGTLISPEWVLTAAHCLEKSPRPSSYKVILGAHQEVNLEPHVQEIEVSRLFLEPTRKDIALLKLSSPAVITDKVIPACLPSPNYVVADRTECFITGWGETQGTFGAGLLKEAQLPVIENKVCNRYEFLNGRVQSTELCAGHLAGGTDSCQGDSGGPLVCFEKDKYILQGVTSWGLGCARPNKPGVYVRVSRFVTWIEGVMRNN
Chain of Tissue-type plasminogen activator (Homo sapiens) (P00750 36-562 limits assumed): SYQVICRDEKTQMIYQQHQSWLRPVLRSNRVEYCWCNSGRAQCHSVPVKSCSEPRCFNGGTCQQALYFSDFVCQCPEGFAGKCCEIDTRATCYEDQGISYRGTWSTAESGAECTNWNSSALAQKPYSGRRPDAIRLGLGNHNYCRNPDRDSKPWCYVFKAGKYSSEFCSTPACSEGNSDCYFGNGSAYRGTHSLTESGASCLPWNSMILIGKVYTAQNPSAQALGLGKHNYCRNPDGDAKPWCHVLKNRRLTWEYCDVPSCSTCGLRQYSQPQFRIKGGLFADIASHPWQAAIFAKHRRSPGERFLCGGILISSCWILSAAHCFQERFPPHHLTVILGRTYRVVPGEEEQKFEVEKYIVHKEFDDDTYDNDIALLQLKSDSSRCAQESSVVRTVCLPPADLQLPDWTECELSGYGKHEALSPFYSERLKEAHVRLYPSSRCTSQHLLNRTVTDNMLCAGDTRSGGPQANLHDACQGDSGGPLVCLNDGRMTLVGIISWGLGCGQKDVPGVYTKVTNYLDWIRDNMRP
Chain of Tissue-type plasminogen activator (Rattus norvegicus) (P19637 whole entry): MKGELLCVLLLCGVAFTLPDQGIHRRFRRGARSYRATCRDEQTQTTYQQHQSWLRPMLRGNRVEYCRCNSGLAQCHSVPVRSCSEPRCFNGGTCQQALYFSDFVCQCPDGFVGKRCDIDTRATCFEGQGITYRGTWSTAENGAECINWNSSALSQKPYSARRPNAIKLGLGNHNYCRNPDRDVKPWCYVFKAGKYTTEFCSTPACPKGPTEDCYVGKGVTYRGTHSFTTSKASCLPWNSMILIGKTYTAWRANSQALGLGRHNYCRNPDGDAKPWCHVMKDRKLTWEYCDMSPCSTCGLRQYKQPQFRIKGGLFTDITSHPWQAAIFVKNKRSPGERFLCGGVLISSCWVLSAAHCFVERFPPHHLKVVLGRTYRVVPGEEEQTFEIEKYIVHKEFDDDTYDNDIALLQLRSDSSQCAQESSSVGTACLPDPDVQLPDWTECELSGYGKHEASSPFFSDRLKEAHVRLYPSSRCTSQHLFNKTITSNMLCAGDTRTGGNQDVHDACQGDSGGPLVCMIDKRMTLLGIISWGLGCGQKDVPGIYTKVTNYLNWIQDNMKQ
Chain of Glycine receptor (alpha-1/beta) (P23415 whole entry): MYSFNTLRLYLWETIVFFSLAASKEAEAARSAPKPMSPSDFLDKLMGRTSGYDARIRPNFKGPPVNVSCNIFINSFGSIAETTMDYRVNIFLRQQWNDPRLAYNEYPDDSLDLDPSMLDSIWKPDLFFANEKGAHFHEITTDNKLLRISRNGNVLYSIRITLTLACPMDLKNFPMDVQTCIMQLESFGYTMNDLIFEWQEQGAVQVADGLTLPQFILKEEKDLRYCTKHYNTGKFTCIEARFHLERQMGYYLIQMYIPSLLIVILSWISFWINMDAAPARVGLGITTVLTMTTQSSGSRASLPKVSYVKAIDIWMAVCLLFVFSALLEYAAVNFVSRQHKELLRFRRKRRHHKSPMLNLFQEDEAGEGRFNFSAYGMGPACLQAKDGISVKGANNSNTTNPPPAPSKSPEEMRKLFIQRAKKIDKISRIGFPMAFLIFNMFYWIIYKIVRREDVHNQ
Chain of Glycine receptor (alpha-1/beta) (P48167 whole entry): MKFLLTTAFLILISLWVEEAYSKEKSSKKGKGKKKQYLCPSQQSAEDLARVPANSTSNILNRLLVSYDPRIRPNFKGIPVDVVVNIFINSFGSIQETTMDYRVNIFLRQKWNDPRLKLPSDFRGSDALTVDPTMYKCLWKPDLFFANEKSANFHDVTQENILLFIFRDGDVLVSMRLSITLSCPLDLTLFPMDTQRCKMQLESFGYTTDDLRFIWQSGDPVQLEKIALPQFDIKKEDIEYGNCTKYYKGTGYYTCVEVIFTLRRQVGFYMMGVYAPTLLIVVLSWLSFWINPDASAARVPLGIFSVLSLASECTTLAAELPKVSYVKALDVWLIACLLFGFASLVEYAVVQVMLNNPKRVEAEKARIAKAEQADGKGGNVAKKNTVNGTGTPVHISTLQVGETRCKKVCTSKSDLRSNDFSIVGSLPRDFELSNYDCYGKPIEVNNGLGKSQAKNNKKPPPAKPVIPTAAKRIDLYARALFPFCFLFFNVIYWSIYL
Chain of Voltage-gated inwardly rectifying potassium channel KCNH2 (Q12809 whole entry): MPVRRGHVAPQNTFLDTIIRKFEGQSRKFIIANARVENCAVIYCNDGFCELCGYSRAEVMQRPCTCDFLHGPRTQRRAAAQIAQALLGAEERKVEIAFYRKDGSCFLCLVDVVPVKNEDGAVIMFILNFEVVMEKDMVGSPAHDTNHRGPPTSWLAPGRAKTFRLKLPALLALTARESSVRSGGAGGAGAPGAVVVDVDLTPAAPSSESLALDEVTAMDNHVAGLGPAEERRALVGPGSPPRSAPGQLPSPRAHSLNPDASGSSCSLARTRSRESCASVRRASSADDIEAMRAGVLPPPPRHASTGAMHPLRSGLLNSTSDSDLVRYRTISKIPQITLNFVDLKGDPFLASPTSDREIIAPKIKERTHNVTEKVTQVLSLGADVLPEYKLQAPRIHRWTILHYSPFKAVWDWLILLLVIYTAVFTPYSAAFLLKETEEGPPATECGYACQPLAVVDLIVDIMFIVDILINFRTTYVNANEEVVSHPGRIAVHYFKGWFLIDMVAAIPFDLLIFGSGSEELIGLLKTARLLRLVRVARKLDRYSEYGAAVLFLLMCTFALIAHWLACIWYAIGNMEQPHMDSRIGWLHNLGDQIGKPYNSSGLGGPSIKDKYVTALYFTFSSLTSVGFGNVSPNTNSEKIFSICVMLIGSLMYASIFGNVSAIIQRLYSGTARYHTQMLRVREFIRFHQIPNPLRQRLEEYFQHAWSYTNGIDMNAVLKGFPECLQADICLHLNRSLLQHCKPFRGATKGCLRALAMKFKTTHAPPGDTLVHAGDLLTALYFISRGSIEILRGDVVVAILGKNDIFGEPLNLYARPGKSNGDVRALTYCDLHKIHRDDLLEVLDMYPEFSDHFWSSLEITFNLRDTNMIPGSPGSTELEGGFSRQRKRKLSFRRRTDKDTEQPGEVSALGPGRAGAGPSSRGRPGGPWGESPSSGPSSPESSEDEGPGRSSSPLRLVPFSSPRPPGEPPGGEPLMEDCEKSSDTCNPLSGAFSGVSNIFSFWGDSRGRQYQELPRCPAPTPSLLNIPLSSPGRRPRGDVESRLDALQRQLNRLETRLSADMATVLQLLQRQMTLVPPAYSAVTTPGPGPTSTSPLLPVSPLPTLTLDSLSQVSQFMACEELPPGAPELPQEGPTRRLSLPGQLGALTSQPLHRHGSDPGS

Structure (SMILES): CC(C)(C)CC1Cc2nc(P(=O)(O)O)ccc2CN1.Cl (mixture of isomers)
Ratio IC50 (Blood): 0.19

Structure (SMILES): Cl.O=C(O)c1ccc2c(n1)CCNC2
Ratio IC50 (Blood): 0.25

Structure (SMILES): Cl.O=S(=O)(O)c1ccc2c(n1)CCNC2
Ratio IC50 (Blood): 0.93

Structure (SMILES): Cl.NC(=O)NC(=O)c1ccc2c(n1)CCNC2
Ratio IC50 (Blood): >10

Structure (SMILES): CC(C)CCC1Cc2nc(P(=O)(O)O)ccc2CN1.Cl (mixture of isomers)
Ratio IC50 (Blood): 0.09

Structure (SMILES): Cl.O=P(O)(O)c1ccc2c(n1)C(N1CCOCC1)CNC2 (mixture of isomers)
Ratio IC50 (Blood): 0.3

Structure (SMILES): Cl.O=P(O)(O)c1ccc2c(n1)CCNC2
AUC(0-inf) [1]: 14200 ng·h/mL | IC50 (Plasminogen [2]): 8.42 µM | half-life [3]: 2.41 h | MTD [4]: > 500 mg/kg | Vd [5]: 0.473 L/kg | IC50 [6]: 782 µM | NOAEL at 336 h [7]: 60 mg/kg | inhibition [8]: Active | Ratio IC50 (Blood): 0.19 | AUC(0-inf) [9]: 11600 ng·h/mL | IC50 [10]: > 300 µM | half-life [11]: 2.53 h | NOAEL at 336 h [12]: 70 mg/kg | IC90 [13]: 1.01 µM | IC90 (Homo sapiens): 4.71 µM | IC50 [14]: 1.48 µM | Activity (Rattus norvegicus [15]): Active | half-life [16]: 12.8 h | Kd (Plasminogen [17]): 21.1 µM | AUC [18]: 16600 ng·h/mL | clearance [19]: 2.64 mL/min/kg | t1/2 [20]: 11.1 h | Activity (Rattus norvegicus [21]): Active | Activity [22]: Non-toxic | MTD [23]: > 500 mg/kg | Activity [24]: Non-toxic | Vdss [25]: 0.96 L/kg | IC50 [26]: 540 µM | AUC(0-inf) [27]: 16500 ng·h/mL

Structure (SMILES): CC(C)CC1Cc2nc(P(=O)(O)O)ccc2CN1.Cl (mixture of isomers)
Ratio IC50 (Blood): 0.08

Structure (SMILES): CC(C)(C)CCC1Cc2nc(P(=O)(O)O)ccc2CN1.Cl (mixture of isomers)
Ratio IC50 (Blood): 0.1

clearance [28]: 2.46 mL/min/kg | AUC(0-inf) [29]: 6680 ng·h/mL | half-life [30]: 5.34 h | inhibition [8]: Active | IC90 [13]: 10.1 µM | IC90 (Homo sapiens): 78.7 µM | IC50 [14]: 5.33 µM | Vd [31]: 0.296 L/kg | half-life [32]: 1.28 h | clearance [33]: 5.78 mL/min/kg | AUC(0-inf) [34]: 2820 ng·h/mL | Vd [35]: 0.587 L/kg
Structure (SMILES): NC[C@H]1CC[C@H](C(=O)O)CC1 [TRANEXAMIC ACID]
Activity (Rattus norvegicus [15]): Active | Activity (Rattus norvegicus [21]): Active

Structure (SMILES): Cl.O=C(O)c1ccc2c(c1)CCNC2
Ratio IC50 (Blood): 0.63

Structure (SMILES): Cl.NS(=O)(=O)c1ccc2c(n1)CCNC2
Ratio IC50 (Blood): 4.26

Structure (SMILES): Cl.O=P(O)(O)c1ccc2c(n1)CC(Cc1ccccc1)NC2 (mixture of isomers)
Ratio IC50 (Blood): 0.75

Structure (SMILES): Cl.O=C(O)c1nc2c([nH]1)CCNC2
Ratio IC50 (Blood): >10

Structure (SMILES): Cl.c1cc2c(nc1-c1nnn[nH]1)CCNC2
Ratio IC50 (Blood): 0.9

Structure (SMILES): CCCC1Cc2nc(P(=O)(O)O)ccc2CN1.Cl (mixture of isomers)
Ratio IC50 (Blood): 0.2

Structure (SMILES): Cl.O=P(O)(O)c1ccc2c(n1)C(N1CCS(=O)(=O)CC1)CNC2 (mixture of isomers)
Ratio IC50 (Blood): 0.25

Structure (SMILES): Cl.O=P(O)(O)c1ccc2c(n1)C(N1CCSCC1)CNC2 (mixture of isomers)
Ratio IC50 (Blood): 0.21
